Data taken from patent US20030191279A1, “Urea derivatives useful as anticancer agents” (priority 1999, published 2003).

SMILES	melting point
O=C(NCC(=O)N(Cc1ccccc1)[C@@H]1c2ccccc2CC[C@H]1Cc1ccccc1)Nc1cccc(C(=O)O)c1 (relative stereo) [Example 1, trans-3-(3-{[Benzyl-(2-benzyl-1,2,3,4-tetrahydro-naphthalen-1-yl)-carbamoyl]-methyl}-ureido)-benzoic acid]	> 250 °C
O=C(NCC(=O)N(Cc1ccccc1)[C@@H]1c2ccccc2CC[C@H]1Cc1ccccc1)Nc1cccc(C(=O)Nc2nnn[nH]2)c1 (relative stereo) [Example 3, trans-3-(3-{[Benzyl-(2-benzyl-1,2,3,4-tetrahydro-naphthalen-1-yl)-carbamoyl]-methyl}-ureido)-N-(1H-tetrazol-5-yl)-benzamide]	155 °C (dec.)
O=C(NCC(=O)N(Cc1ccccc1)[C@@H]1c2ccccc2CC[C@H]1Cc1ccccc1)c1cccc(-c2nnn[nH]2)c1 (relative stereo) [Example 4, trans-N-{[Benzyl-(2-benzyl-1,2,3,4-tetrahydro-naphthalen-1-yl)-carbamoyl]-methyl}-3-(1H-tetrazol-5-yl)-benzamide]	119 °C (dec.)
COc1ccccc1CN(C(=O)CNC(=O)Nc1cccc(C(=O)O)c1)[C@@H]1c2ccccc2CC[C@H]1Cc1ccccc1 (relative stereo) [Example 11, trans-3-(3-{[(2-Benzyl-1,2,3,4-tetrahydro-naphthalen-1-yl)-(2-methoxy-benzyl)-carbamoyl]-methyl}-ureido)-benzoic acid]	117 °C
O=C(NCC(=O)N(Cc1cccs1)[C@@H]1c2ccccc2CC[C@H]1Cc1ccccc1)Nc1cccc(C(=O)O)c1 (relative stereo) [Example 13, trans-3-(3-{[(2-Benzyl-1,2,3,4-tetrahydro-naphthalen-1-yl)-thiophen-2-ylmethyl-carbamoyl]-methyl}-ureido)-benzoic acid]	196 to 198 °C
O=C(NCC(=O)N(Cc1ccccc1)[C@@H]1CCCC[C@H]1Cc1ccccc1)Nc1cccc(C(=O)O)c1 (relative stereo) [Example 14, trans-3-(3-{[Benzyl-(2-benzyl-cyclohexyl)-carbamoyl]-methyl)-ureido)-benzoic Acid]	160 to 162 °C
CCN(C(=O)CNC(=O)Nc1cccc(C(=O)O)c1)[C@@H]1c2ccccc2CC[C@H]1Cc1ccccc1 (relative stereo) [Example 16, trans-3-(3-{[(2-Benzyl-1,2,3,4-tetrahydro-naphthalen-1yl)-ethyl-carbamoyl]-methyl}-ureido)-benzoic acid]	130 °C
O=C(NCC(=O)N(Cc1nccs1)[C@@H]1c2ccccc2CC[C@H]1Cc1ccccc1)Nc1cccc(C(=O)O)c1 (relative stereo) [Example 17, trans-3-(3-{[(2-Benzyl-1,2,3,4-tetrahydro-naphthalen-1-yl)-thiazol-2-ylmethyl-carbamoyl]-methyl}-ureido)-benzoic acid]	194 to 195 °C
COc1ccccc1C[C@@H]1CCc2ccccc2[C@H]1N(Cc1ccccc1)C(=O)CNC(=O)Nc1cccc(C(=O)O)c1 (relative stereo) [Example 18, trans-3-[3-({Benzyl-[2-(2-methoxy-benzyl)-1,2,3,4-tetrahydro-naphthalen-1-yl]-carbamoyl}-methyl)-ureido]-benzoic acid]	130 °C
O=C(O)c1cc(C(=O)NCC(=O)N(Cc2ccccc2)[C@@H]2CCCC[C@H]2Cc2ccccc2)ncn1 (relative stereo) [Example 20, trans-6-({[Benzyl-(2-benzyl-cyclohexyl)-carbamoyl]-methyl}-carbamoyl)-pyrimidine-4-carboxylic acid]	120 °C
